# Results from patent US11697648B2, “Fused pyrimidine pyridinone compounds as JAK inhibitors” (THERAVANCE BIOPHARMA R&D IP, LLC, priority 2019, dated 2023).
# Biological target: JAK3 (Homo sapiens (Human), UniProt P52333)
# Assay: Biochemical JAK3 kinase assay (LanthaScreen)
# Details: not given
# Procedure, shortened: (§1)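 GST-JAK + GFP-STAT1 peptide, HEPES pH 7.5/MgCl2/EGTA/Brij-35 buffer; cpd preincubation 1 h RT; ATP start, 1 h RT; stop with 10 mM EDTA + 2 nM Tb-anti-pSTAT1; TR-FRET 520/495. 4-parameter IC50 → pKi (Cheng-Prusoff).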
# Chain of JAK3 (P52333 whole entry): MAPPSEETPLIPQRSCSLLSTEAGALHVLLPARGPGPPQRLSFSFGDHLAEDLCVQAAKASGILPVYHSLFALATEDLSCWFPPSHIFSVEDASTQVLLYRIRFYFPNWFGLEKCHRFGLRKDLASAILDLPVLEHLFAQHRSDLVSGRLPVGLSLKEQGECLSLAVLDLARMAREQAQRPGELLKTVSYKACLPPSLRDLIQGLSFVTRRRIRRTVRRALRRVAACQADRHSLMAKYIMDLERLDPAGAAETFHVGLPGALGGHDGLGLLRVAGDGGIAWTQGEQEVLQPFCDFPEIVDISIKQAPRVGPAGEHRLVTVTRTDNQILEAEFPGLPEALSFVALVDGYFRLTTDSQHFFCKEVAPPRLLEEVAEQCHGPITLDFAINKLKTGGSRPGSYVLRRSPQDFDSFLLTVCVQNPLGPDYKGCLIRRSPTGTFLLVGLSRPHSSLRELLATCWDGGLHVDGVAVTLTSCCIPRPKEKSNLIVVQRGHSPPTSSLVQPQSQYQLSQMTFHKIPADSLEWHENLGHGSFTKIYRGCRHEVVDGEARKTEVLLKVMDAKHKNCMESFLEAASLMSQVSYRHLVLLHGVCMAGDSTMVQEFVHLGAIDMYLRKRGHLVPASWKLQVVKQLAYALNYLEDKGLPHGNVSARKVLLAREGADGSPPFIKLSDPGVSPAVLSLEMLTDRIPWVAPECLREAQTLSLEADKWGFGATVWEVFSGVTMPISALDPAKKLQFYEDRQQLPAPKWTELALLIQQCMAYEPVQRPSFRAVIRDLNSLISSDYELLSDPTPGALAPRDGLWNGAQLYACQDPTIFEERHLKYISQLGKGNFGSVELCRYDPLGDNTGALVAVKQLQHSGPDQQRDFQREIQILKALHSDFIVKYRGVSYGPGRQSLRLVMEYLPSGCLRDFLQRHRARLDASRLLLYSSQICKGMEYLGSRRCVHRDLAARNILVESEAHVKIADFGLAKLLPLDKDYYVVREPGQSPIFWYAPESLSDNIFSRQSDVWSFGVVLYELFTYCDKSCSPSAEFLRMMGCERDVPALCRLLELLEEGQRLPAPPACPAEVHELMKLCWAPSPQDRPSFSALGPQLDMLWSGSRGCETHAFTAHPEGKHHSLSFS
row,SMILES,JAK 3 (pKi)
1,C=CC(=O)N1CC(CCn2c(=O)ccc3cnc(Nc4ccc(N5CCSCC5)cc4)nc32)C1 [Example 26],B (B represents pKi value between 9 and 10 (Ki between 1 nM and 0.1 nM))
2,C=CC(=O)N1CC(CCn2c(=O)ccc3cnc(Nc4cccc(CN5CCOCC5)c4)nc32)C1 [Example 27],B (B represents pKi value between 9 and 10 (Ki between 1 nM and 0.1 nM))
3,C=CC(=O)N1CC(CCn2c(=O)ccc3cnc(Nc4cccc(N5CCN(C)CC5)c4)nc32)C1 [Example 31],B (B represents pKi value between 9 and 10 (Ki between 1 nM and 0.1 nM))
4,C=CC(=O)N1CCN(CCn2c(=O)ccc3cnc(Nc4ccc(N5CCSCC5)cc4)nc32)CC1 [Example 38],B (B represents pKi value between 9 and 10 (Ki between 1 nM and 0.1 nM))
5,C=CC(=O)N1CC(CCn2c(=O)ccc3cnc(Nc4cccc(CN5CCN(C)CC5)c4)nc32)C1 [Example 52],B (B represents pKi value between 9 and 10 (Ki between 1 nM and 0.1 nM))

# Same assay, conditions: selectivity JAK3 over JAK1, difference of pKi
row,SMILES,JAK3 (pKi)-JAK1 (pKi)
1,C=CC(=O)N1CC(CCn2c(=O)ccc3cnc(Nc4ccc(N5CCSCC5)cc4)nc32)C1 [Example 26],A (A represents a value of 3 or above)
2,C=CC(=O)N1CC(CCn2c(=O)ccc3cnc(Nc4cccc(CN5CCOCC5)c4)nc32)C1 [Example 27],A (A represents a value of 3 or above)
3,C=CC(=O)N1CC(CCn2c(=O)ccc3cnc(Nc4cccc(N5CCN(C)CC5)c4)nc32)C1 [Example 31],A (A represents a value of 3 or above)
4,C=CC(=O)N1CCN(CCn2c(=O)ccc3cnc(Nc4ccc(N5CCSCC5)cc4)nc32)CC1 [Example 38],A (A represents a value of 3 or above)
5,C=CC(=O)N1CC(CCn2c(=O)ccc3cnc(Nc4cccc(CN5CCN(C)CC5)c4)nc32)C1 [Example 52],A (A represents a value of 3 or above)

# Tested on: Caco-2 cell monolayers
# Assay: Caco-2 permeation assay
# Type: in vitro ADME
# Details: 5 μM, A-B direction, with Verapamil (25 μM)
# Procedure, shortened: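 Passive A-to-B permeability with P-gp inhibited by verapamil (25 μM); compound at 5 μM, n=2. Both compartments sampled at t0 and t120 and quantified by LC-MS/MS, giving apparent permeability in cm/sec from flux, area and concentration.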
row,SMILES,Caco Kp
1,C=CC(=O)N1CC(CCn2c(=O)ccc3cnc(Nc4ccc(N5CCSCC5)cc4)nc32)C1 [Example 26],C (C represents a value between 10×10^−6 and 30×10^−6 cm/sec)
2,C=CC(=O)N1CC(CCn2c(=O)ccc3cnc(Nc4cccc(CN5CCOCC5)c4)nc32)C1 [Example 27],C (C represents a value between 10×10^−6 and 30×10^−6 cm/sec)
3,C=CC(=O)N1CC(CCn2c(=O)ccc3cnc(Nc4cccc(N5CCN(C)CC5)c4)nc32)C1 [Example 31],A (A represents a value below 5×10^−6 cm/sec)
4,C=CC(=O)N1CCN(CCn2c(=O)ccc3cnc(Nc4ccc(N5CCSCC5)cc4)nc32)CC1 [Example 38],C (C represents a value between 10×10^−6 and 30×10^−6 cm/sec)
5,C=CC(=O)N1CC(CCn2c(=O)ccc3cnc(Nc4cccc(CN5CCN(C)CC5)c4)nc32)C1 [Example 52],A (A represents a value below 5×10^−6 cm/sec)

# Biological target: JAK2 (Homo sapiens (Human), UniProt O60674)
# Sequence (O60674 whole entry): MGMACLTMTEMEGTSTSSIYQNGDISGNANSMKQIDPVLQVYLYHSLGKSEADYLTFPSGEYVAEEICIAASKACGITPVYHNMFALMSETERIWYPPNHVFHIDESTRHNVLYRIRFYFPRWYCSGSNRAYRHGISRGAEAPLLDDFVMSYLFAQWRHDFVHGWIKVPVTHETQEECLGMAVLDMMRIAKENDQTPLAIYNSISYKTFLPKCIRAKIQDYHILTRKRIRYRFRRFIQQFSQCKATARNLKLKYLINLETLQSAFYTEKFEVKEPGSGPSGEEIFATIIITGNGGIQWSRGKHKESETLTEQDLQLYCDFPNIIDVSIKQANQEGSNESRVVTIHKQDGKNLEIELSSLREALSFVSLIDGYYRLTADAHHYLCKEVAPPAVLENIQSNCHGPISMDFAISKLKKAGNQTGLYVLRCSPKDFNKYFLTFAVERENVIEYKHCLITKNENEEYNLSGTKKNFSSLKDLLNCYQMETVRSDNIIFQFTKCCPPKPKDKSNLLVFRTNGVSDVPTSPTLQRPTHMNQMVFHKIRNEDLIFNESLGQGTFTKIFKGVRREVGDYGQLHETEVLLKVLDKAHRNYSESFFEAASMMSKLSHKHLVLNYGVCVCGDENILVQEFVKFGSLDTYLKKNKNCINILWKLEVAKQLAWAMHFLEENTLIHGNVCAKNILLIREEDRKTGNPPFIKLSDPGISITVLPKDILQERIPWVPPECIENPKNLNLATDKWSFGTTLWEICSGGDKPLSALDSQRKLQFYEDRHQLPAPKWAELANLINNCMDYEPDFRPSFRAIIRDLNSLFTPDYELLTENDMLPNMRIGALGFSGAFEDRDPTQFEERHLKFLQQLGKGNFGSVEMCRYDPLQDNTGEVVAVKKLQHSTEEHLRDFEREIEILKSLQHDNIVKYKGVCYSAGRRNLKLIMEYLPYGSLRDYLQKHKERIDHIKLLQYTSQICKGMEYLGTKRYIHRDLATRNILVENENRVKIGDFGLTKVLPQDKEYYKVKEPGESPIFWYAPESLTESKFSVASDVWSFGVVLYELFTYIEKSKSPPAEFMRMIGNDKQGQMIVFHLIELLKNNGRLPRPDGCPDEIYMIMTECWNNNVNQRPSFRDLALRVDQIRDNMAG
# Assay: Biochemical JAK2 kinase assay (LanthaScreen)
# Details: not given
# Procedure, shortened: as §1
row,SMILES,JAK 2 (pKi)
1,C=CC(=O)N1CC(CCn2c(=O)ccc3cnc(Nc4ccc(N5CCSCC5)cc4)nc32)C1 [Example 26],E (E represents a pKi value of 7 or below (Ki of 100 nM or above))
2,C=CC(=O)N1CC(CCn2c(=O)ccc3cnc(Nc4cccc(CN5CCOCC5)c4)nc32)C1 [Example 27],E (E represents a pKi value of 7 or below (Ki of 100 nM or above))
3,C=CC(=O)N1CC(CCn2c(=O)ccc3cnc(Nc4cccc(N5CCN(C)CC5)c4)nc32)C1 [Example 31],E (E represents a pKi value of 7 or below (Ki of 100 nM or above))
4,C=CC(=O)N1CCN(CCn2c(=O)ccc3cnc(Nc4ccc(N5CCSCC5)cc4)nc32)CC1 [Example 38],E (E represents a pKi value of 7 or below (Ki of 100 nM or above))
5,C=CC(=O)N1CC(CCn2c(=O)ccc3cnc(Nc4cccc(CN5CCN(C)CC5)c4)nc32)C1 [Example 52],E (E represents a pKi value of 7 or below (Ki of 100 nM or above))

# Biological target: JAK1 (Homo sapiens (Human), UniProt P23458)
# Sequence (P23458 whole entry): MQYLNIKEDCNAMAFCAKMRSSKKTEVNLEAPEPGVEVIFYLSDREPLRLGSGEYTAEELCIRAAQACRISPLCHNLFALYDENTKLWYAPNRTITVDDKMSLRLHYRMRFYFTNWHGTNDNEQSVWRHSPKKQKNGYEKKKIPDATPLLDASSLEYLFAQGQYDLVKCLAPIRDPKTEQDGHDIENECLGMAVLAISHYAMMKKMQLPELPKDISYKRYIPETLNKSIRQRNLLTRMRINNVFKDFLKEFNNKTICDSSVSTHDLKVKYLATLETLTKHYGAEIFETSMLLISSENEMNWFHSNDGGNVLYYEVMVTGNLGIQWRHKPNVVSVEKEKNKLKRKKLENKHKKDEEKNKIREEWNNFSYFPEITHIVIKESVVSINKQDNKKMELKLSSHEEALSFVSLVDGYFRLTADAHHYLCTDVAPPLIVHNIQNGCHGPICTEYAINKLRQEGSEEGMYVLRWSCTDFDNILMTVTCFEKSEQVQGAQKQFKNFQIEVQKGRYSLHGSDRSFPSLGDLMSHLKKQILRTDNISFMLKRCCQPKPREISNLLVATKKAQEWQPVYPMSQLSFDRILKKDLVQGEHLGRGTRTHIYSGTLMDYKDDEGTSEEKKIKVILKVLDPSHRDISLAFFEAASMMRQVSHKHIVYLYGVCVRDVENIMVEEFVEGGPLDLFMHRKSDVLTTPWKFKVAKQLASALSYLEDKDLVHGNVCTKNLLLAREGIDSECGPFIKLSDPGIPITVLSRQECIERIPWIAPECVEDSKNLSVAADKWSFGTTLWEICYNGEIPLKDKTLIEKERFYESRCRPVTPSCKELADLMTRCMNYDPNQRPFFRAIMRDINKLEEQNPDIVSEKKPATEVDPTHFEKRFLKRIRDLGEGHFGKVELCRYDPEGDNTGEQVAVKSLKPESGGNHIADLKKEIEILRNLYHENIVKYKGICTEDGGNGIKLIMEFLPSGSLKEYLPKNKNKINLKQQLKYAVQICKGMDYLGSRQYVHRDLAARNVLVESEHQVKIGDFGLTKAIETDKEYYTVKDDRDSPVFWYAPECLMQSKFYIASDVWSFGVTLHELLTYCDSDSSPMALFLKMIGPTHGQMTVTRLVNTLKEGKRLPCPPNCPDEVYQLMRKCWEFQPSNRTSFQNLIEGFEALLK
# Assay: Biochemical JAK1 kinase assay (LanthaScreen)
# Details: not given
# Procedure, shortened: as §1
row,SMILES,JAK 1 (pKi)
1,C=CC(=O)N1CC(CCn2c(=O)ccc3cnc(Nc4ccc(N5CCSCC5)cc4)nc32)C1 [Example 26],E (E represents a pKi value of 7 or below (Ki of 100 nM or above))
2,C=CC(=O)N1CC(CCn2c(=O)ccc3cnc(Nc4cccc(CN5CCOCC5)c4)nc32)C1 [Example 27],E (E represents a pKi value of 7 or below (Ki of 100 nM or above))
3,C=CC(=O)N1CC(CCn2c(=O)ccc3cnc(Nc4cccc(N5CCN(C)CC5)c4)nc32)C1 [Example 31],E (E represents a pKi value of 7 or below (Ki of 100 nM or above))
4,C=CC(=O)N1CCN(CCn2c(=O)ccc3cnc(Nc4ccc(N5CCSCC5)cc4)nc32)CC1 [Example 38],E (E represents a pKi value of 7 or below (Ki of 100 nM or above))
5,C=CC(=O)N1CC(CCn2c(=O)ccc3cnc(Nc4cccc(CN5CCN(C)CC5)c4)nc32)C1 [Example 52],E (E represents a pKi value of 7 or below (Ki of 100 nM or above))

# Tested on: IL-2 stimulated STAT5 phosphorylation in Tall-1 human T cell line (JAK3)
# Assay: Cellular JAK3 potency assay: inhibition of IL-2 stimulated pSTAT5 in Tall-1 T cells
# Type: cell-based
# Details: IL-2 stimulated pSTAT5, Tall-1 T cells
# Procedure, shortened: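 AlphaLISA SureFire Ultra measures STAT5 Tyr694/699 phosphorylation in lysed Tall-1 human T cells. Cells were exposed to compound for 1 h at 37 °C before a 30 min IL-2 challenge (300 ng/ml final). Values are pIC50 means with standard deviation from signal-versus-concentration curves.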
row,SMILES,Tall-1 (pIC50)
1,C=CC(=O)N1CC(CCn2c(=O)ccc3cnc(Nc4ccc(N5CCSCC5)cc4)nc32)C1 [Example 26],B (B represents a pC50 value between 6.7 (included) and 7.5 (IC50 between 200 nM and 32 nM))
2,C=CC(=O)N1CC(CCn2c(=O)ccc3cnc(Nc4cccc(CN5CCOCC5)c4)nc32)C1 [Example 27],B (B represents a pC50 value between 6.7 (included) and 7.5 (IC50 between 200 nM and 32 nM))
3,C=CC(=O)N1CC(CCn2c(=O)ccc3cnc(Nc4cccc(N5CCN(C)CC5)c4)nc32)C1 [Example 31],B (B represents a pC50 value between 6.7 (included) and 7.5 (IC50 between 200 nM and 32 nM))
4,C=CC(=O)N1CCN(CCn2c(=O)ccc3cnc(Nc4ccc(N5CCSCC5)cc4)nc32)CC1 [Example 38],B (B represents a pC50 value between 6.7 (included) and 7.5 (IC50 between 200 nM and 32 nM))
5,C=CC(=O)N1CC(CCn2c(=O)ccc3cnc(Nc4cccc(CN5CCN(C)CC5)c4)nc32)C1 [Example 52],B (B represents a pC50 value between 6.7 (included) and 7.5 (IC50 between 200 nM and 32 nM))

# Tested on: not listed separately
# Assay: Colon and plasma mouse pharmacokinetics
# Type: in vivo
# Details: mouse, colon tissue / plasma; male Balb/c mice, 10 mg/kg PO; ratio of the colon AUC to the plasma AUC
# Protocol: Assay 5: Colon and Plasma Mouse Pharmacokinetics
# To 6 male Balb/c mice was administered 10 mg/kg of compound in 1% HPMC+0.1% Tween-80 by PO administration. At 0.5, 2 and 6 hours after dose administration, animals were anesthetized, and terminal blood samples were collected by cardiac puncture, followed by collection of colon contents and colon tissue.
# Blood samples were collected into K2EDTA and stored on wet ice until processed to plasma by centrifugation (12000 rpm at 4° C.). Plasma samples were transferred to cluster tubes and placed on dry ice prior to freezer storage. The colon contents from each animal were collected at each terminal blood collection time point. The colon tissues were flushed with saline and patted dry. The colon and colon content tissues were homogenized using sterile water containing 0.1% formic acid 9:1 (water:tissue, v/w). The homogenized tissues and colon contents were transferred to cluster tubes and placed on dry ice prior to freezer storage. All samples were analyzed using LC/MS/MS against analytical standards.
# The composite pharmacokinetic parameters of the compounds were determined by non-compartmental analysis using Phoenix WinNonlin Version 6 (Certara, St. Louis, Mo.) and using mean values from 2 animals/time point. For plasma concentrations below the quantification limit (BQL), the lowest concentration measurable or the BLOQ (below limit of quantification) was used.
# A colon to plasma ratio was determined as the ratio of the colon AUC to the plasma AUC.
row,SMILES,Kp
1,C=CC(=O)N1CC(CCn2c(=O)ccc3cnc(Nc4ccc(N5CCSCC5)cc4)nc32)C1 [Example 26],> 1000
2,C=CC(=O)N1CC(CCn2c(=O)ccc3cnc(Nc4cccc(CN5CCOCC5)c4)nc32)C1 [Example 27],> 100
3,C=CC(=O)N1CC(CCn2c(=O)ccc3cnc(Nc4cccc(N5CCN(C)CC5)c4)nc32)C1 [Example 31],> 50
4,C=CC(=O)N1CCN(CCn2c(=O)ccc3cnc(Nc4ccc(N5CCSCC5)cc4)nc32)CC1 [Example 38],> 1000
5,C=CC(=O)N1CC(CCn2c(=O)ccc3cnc(Nc4cccc(CN5CCN(C)CC5)c4)nc32)C1 [Example 52],> 100

# Biological target: Tyk2 (Homo sapiens (Human), UniProt P29597)
# Sequence (P29597 whole entry): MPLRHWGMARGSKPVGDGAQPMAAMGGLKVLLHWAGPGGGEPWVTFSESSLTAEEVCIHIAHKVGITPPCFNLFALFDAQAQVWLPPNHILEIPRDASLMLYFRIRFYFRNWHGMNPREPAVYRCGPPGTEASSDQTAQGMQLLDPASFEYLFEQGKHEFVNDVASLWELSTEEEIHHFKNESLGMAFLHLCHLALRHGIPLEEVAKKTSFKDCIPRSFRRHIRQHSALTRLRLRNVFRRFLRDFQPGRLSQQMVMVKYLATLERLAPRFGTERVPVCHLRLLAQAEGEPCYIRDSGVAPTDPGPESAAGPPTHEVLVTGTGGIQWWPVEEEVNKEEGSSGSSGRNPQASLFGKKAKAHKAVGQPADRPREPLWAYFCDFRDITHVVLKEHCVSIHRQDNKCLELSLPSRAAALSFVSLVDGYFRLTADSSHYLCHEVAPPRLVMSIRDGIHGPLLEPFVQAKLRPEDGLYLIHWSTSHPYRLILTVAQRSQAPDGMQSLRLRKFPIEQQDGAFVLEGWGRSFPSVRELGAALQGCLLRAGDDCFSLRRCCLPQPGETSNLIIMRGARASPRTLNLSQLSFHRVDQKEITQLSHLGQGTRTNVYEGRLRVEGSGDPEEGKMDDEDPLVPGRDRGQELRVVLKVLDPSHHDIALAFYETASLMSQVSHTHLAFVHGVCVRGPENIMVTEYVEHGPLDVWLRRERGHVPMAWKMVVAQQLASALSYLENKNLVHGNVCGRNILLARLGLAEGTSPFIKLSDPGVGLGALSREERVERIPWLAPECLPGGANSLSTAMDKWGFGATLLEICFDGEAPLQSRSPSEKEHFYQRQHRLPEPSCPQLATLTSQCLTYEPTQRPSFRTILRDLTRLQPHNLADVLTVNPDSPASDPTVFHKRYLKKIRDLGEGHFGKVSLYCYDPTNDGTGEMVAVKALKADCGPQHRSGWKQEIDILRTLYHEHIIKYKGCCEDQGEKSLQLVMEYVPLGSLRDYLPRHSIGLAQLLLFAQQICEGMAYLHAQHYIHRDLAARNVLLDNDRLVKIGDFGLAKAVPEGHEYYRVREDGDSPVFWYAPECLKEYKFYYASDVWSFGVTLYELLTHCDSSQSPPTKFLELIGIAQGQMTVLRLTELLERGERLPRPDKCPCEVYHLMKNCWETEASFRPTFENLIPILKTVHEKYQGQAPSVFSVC
# Assay: Biochemical Tyk2 kinase assay (LanthaScreen)
# Details: not given
# Procedure, shortened: as §1
row,SMILES,Tyk 2 (pKi)
1,C=CC(=O)N1CC(CCn2c(=O)ccc3cnc(Nc4ccc(N5CCSCC5)cc4)nc32)C1 [Example 26],E (E represents a pKi value of 7 or below (Ki of 100 nM or above))
2,C=CC(=O)N1CC(CCn2c(=O)ccc3cnc(Nc4cccc(CN5CCOCC5)c4)nc32)C1 [Example 27],E (E represents a pKi value of 7 or below (Ki of 100 nM or above))
3,C=CC(=O)N1CC(CCn2c(=O)ccc3cnc(Nc4cccc(N5CCN(C)CC5)c4)nc32)C1 [Example 31],E (E represents a pKi value of 7 or below (Ki of 100 nM or above))
4,C=CC(=O)N1CCN(CCn2c(=O)ccc3cnc(Nc4ccc(N5CCSCC5)cc4)nc32)CC1 [Example 38],E (E represents a pKi value of 7 or below (Ki of 100 nM or above))
5,C=CC(=O)N1CC(CCn2c(=O)ccc3cnc(Nc4cccc(CN5CCN(C)CC5)c4)nc32)C1 [Example 52],E (E represents a pKi value of 7 or below (Ki of 100 nM or above))
